Measured values from ChEMBL document CHEMBL1143347, “Carbonic anhydrase inhibitors: inhibition of the beta-class enzyme from the yeast Saccharomyces cerevisiae with sulfonamides and sulfamates” (Bioorg Med Chem, 2009).

Molecular target: T1, Carbonic anhydrase (Saccharomyces cerevisiae S288c, UniProt P53615)
T1 sequence (P53615 whole entry): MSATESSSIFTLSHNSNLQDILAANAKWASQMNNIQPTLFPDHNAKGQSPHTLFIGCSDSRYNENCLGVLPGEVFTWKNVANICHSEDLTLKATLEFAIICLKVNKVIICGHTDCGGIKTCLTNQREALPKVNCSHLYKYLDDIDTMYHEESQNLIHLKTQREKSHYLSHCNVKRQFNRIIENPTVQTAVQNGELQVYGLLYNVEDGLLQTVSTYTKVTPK
Description: Inhibition of Saccharomyces cerevisiae recombinant CA expressed in Escherichia coli by stopped-flow CO2 hydrase assay

Structure (SMILES) | Ki
NCc1ccc(S(N)(=O)=O)cc1 [MAFENIDE] | 433 nM
Nc1ccc(S(N)(=O)=O)cc1Br | 248 nM
CC1(C)O[C@@H]2[C@@H](CO[C@@]3(COS(N)(=O)=O)OC(C)(C)O[C@@H]23)O1 [TOPIRAMATE] | 110 nM
Nc1ccc(S(N)(=O)=O)cc1I | 976 nM
Nc1ccc(S(=O)(=O)NCc2ccc(S(N)(=O)=O)cc2)cc1 | 166 nM
NS(=O)(=O)c1ccc(CO)cc1 | 8970 nM
NCCc1ccc(S(N)(=O)=O)cc1 | 163 nM
NS(=O)(=O)c1ccc(S(=O)(=O)Nc2cccc3c(Cl)c[nH]c23)cc1 | 133 nM
Nc1cc(Cl)c(S(N)(=O)=O)cc1S(N)(=O)=O | 169 nM
Nc1nnc(S(N)(=O)=O)s1 | 447 nM
Cc1ccc(S(N)(=O)=O)cc1 [P-TOLUENESULFONAMIDE] | 16100 nM
Nc1ccc(S(N)(=O)=O)cc1 [SULFANILAMIDE] | 18500 nM
NS(=O)(=O)c1ccc(CCO)cc1 | 7540 nM
Nc1cc(C(F)(F)F)c(S(N)(=O)=O)cc1S(N)(=O)=O [2,4-DISULFAMYLTRIFLUOROMETHYLANILINE] | 223 nM
NS(=O)(=O)c1nnc(NS(=O)(=O)c2ccccc2)s1 [BENZOLAMIDE] | 111 nM

The remaining lines, values ahead:

Ki | Structure (SMILES)
12500 nM | O=C1NS(=O)(=O)c2ccccc21 [SACCHARIN]
14500 nM | NS(=O)(=O)c1ccc(C(=O)O)cc1 [CARZENIDE]
154 nM | Nc1ccc(S(=O)(=O)NCCc2ccc(S(N)(=O)=O)cc2)cc1
389 nM | Nc1ccc(S(N)(=O)=O)cc1F
457 nM | Nc1ccc(S(N)(=O)=O)cc1Cl
15.1 nM | Nc1nccc(Nc2ccc(S(N)(=O)=O)cc2)n1
565 nM | NS(=O)(=O)c1nnc(-c2ccccc2Cl)s1
108 nM | Cc1ccc(-c2cc(C(F)(F)F)nn2-c2ccc(S(N)(=O)=O)cc2)cc1 [CELECOXIB]
124 nM | Nc1ccc(S(=O)(=O)Nc2nnc(S(N)(=O)=O)s2)cc1
114 nM | CCN[C@H]1CN(CCCOC)S(=O)(=O)c2sc(S(N)(=O)=O)cc21 [BRINZOLAMIDE]
